Measured values published in patent US20200261391A1, “METHODS OF REDUCING THE RISK OF A CARDIOVASCULAR EVENT IN A STATIN-TREATED SUBJECT BY INCREASING SERUM AND PLASMA EPA AND DPA LEVELS” (Amarin Pharmaceuticals Ireland Limited, priority 2019, published 2020).

System: patients with elevated triglyceride levels on statin therapy
Experiment: REDUCE-IT total (first and subsequent) ischemic events (Example 3; negative binomial, Wei-Lin-Weissfeld, Andersen-Gill, joint frailty models)
Type: in vivo, human
Parameters: total (first and subsequent) ischemic events for primary composite endpoint, relative risk reduction / first events, reduction / second events, reduction / third events, reduction / fourth or more events, reduction: concentration or dose not given beside the values
Conditions: for HR (95% CI), Key Secondary Composite Endpoint / HR (95% CI), Primary Composite Endpoint / RR (95% CI), Key Secondary Composite Endpoint, total events / RR (95% CI), Primary Composite Endpoint, total events: full dataset; for RR (95% CI), Key Secondary Composite Endpoint, total events / RR (95% CI), Primary Composite Endpoint, total events: icosapent ethyl vs placebo
Text: The following study was a multi-center, placebo-controlled clinical trial the details of which are described above in Example 1, the REDUCE-IT design. […] The main outcomes were total primary composite endpoint events defined as cardiovascular death, nonfatal myocardial infarction, nonfatal stroke, coronary revascularization, or hospitalization for unstable angina and total key secondary composite endpoint events defined as cardiovascular death, nonfatal myocardial infarction, or nonfatal stroke. In the context of this study, total events refer to any first event as well as any subsequent event. Differences in total events were determined using other statistical models, including Andersen-Gill, Wei-Lin-Weisfeld (Li and Lagakos), both pre-specified, and a post hoc and joint-frailty analysis.
For the present prespecified analysis, the primary outcome was the total of first plus subsequent ischemic events consisting of the composite of cardiovascular death, nonfatal myocardial infarction, nonfatal stroke, coronary revascularization, or hospitalization for unstable angina. […] Exploratory analyses of the total of first and subsequent events were also performed for the key secondary composite endpoint.
Baseline characteristics were compared between treatment groups using the chi-squared test for categorical variables and the Wilcoxon rank sum test for continuous variables. There are several methods for analyzing first and subsequent (recurrent) event data. As a pre-specified statistical method, a negative binomial regression was used to calculate rates and rate ratios for total cardiovascular events, which accounts for the variability in each patient's risk of events. As pre-specified supportive analyses, the modified Wei-Lin-Weissfeld method (Li and Lagakos modification) was used to calculate hazard ratios (HRs) for the time to the first event, second event, or third event. An additional pre-specified analysis, the Andersen-Gill model using a Cox proportional-hazard with the counting-process formulation was performed to model the total events. In addition, in order to account for informative censoring due to cardiovascular death, the HR for total non-fatal events was calculated using a joint frailty model (See Rondeau V. Joint frailty models for recurring events and death using maximum penalized likelihood estimation: application on cancer events. Biostatistics. 2007; 8:708-21). The joint frailty model simultaneously estimates hazard functions for non-fatal and fatal CV events and takes into account the fact that patients who are prone to have nonfatal events have an elevated risk of a cardiovascular death. The application of the joint frailty model used a gamma distribution for the frailty term.
Statistical analyses using the full adjudicated endpoint events dataset without exclusions using this bundling approach were also determined.

[1] = Andersen-Gill (I) model, adjusted, vs placebo
[2] = Andersen-Gill (I) model, reduced dataset, vs placebo
[3] = Andersen-Gill (I) model, unadjusted, vs placebo
[4] = Andersen-Gill (II) model, adjusted, vs placebo
[5] = Andersen-Gill (II) model, reduced dataset, vs placebo
[6] = Andersen-Gill (II) model, unadjusted, vs placebo
[7] = Joint frailty model, reduced dataset, vs placebo
[8] = Modified WLW model, reduced dataset, vs placebo
[9] = Modified WLW, first event, adjusted, vs placebo
[10] = Modified WLW, first event, unadjusted, vs placebo
[11] = Modified WLW, second event, adjusted, vs placebo
[12] = Modified WLW, second event, unadjusted, vs placebo
[13] = Modified WLW, third event, adjusted, vs placebo
[14] = Modified WLW, third event, unadjusted, vs placebo
[15] = N = 4089, same-day multiple endpoints handled as a single event
[16] = Negative binomial model, adjusted for stratification factors
[17] = Negative binomial model, reduced dataset, vs placebo
[18] = Negative binomial model, unadjusted
[19] = Wei-Lin-Weissfeld model, Example 3
[20] = per 1000 patients treated for five years

Question: With `CC/C=C\C/C=C\C/C=C\C/C=C\C/C=C\CCCC(=O)OCC` [icosapent ethyl, eicosapentaenoic acid ethyl ester] as the compound, how does the “HR (95% CI), Key Secondary Composite Endpoint” value [1] read?
Answer: 0.71

Question: And the “HR (95% CI), Primary Composite Endpoint” value [1]?
Answer: 0.68

Question: What about the “Adjusted HR, key secondary composite endpoint, total events” value [2] of the same compound?
Answer: 0.72

Question: And the “Adjusted HR, primary composite endpoint, total events” value [2]?
Answer: 0.69

Question: And the “Unadjusted HR, key secondary composite endpoint, total events” value [2]?
Answer: 0.72

Question: What about the “Unadjusted HR, primary composite endpoint, total events” value [2] of the same compound?
Answer: 0.69

Question: And the “HR (95% CI), Key Secondary Composite Endpoint” value [3]?
Answer: 0.71

Question: What about the “HR (95% CI), Primary Composite Endpoint” value [3] of the same compound?
Answer: 0.68

Question: And the “HR (95% CI), Key Secondary Composite Endpoint” value [4]?
Answer: 0.71

Question: And the “HR (95% CI), Primary Composite Endpoint” value [4]?
Answer: 0.68

Question: What about the “Adjusted HR, key secondary composite endpoint, total events” value [5] of the same compound?
Answer: 0.72

Question: What about the “Adjusted HR, primary composite endpoint, total events” value [5] of the same compound?
Answer: 0.69

Question: What about the “Unadjusted HR, key secondary composite endpoint, total events” value [5] of the same compound?
Answer: 0.72

Question: What about the “Unadjusted HR, primary composite endpoint, total events” value [5] of the same compound?
Answer: 0.69

Question: What about the “HR (95% CI), Key Secondary Composite Endpoint” value [6] of the same compound?
Answer: 0.71

Question: And the “HR (95% CI), Primary Composite Endpoint” value [6]?
Answer: 0.68

Question: What about the “first events, reduction” value (Example 3) of the same compound?
Answer: 25%

Question: What about the “fourth or more events, reduction” value (Example 3) of the same compound?
Answer: 48%

Question: What about the “second events, reduction” value (Example 3) of the same compound?
Answer: 32%

Question: What about the “third events, reduction” value (Example 3) of the same compound?
Answer: 31%

Question: And the “HR, Cardiovascular Death, key secondary endpoint, adjusted” value [7]?
Answer: 0.79

Question: And the “HR, Cardiovascular Death, key secondary endpoint, unadjusted” value [7]?
Answer: 0.79

Question: And the “HR, Cardiovascular Death, primary endpoint, adjusted” value [7]?
Answer: 0.80

Question: And the “HR, Cardiovascular Death, primary endpoint, unadjusted” value [7]?
Answer: 0.80

Question: And the “HR, Non-fatal Cardiovascular Event, key secondary endpoint, adjusted” value [7]?
Answer: 0.68

Question: What about the “HR, Non-fatal Cardiovascular Event, key secondary endpoint, unadjusted” value [7] of the same compound?
Answer: 0.68

Question: What about the “HR, Non-fatal Cardiovascular Event, primary endpoint, adjusted” value [7] of the same compound?
Answer: 0.67

Question: What about the “HR, Non-fatal Cardiovascular Event, primary endpoint, unadjusted” value [7] of the same compound?
Answer: 0.66

Question: And the “Adjusted HR, key secondary composite endpoint, first event” value [8]?
Answer: 0.74

Question: And the “Adjusted HR, key secondary composite endpoint, second event” value [8]?
Answer: 0.75

Question: And the “Adjusted HR, key secondary composite endpoint, third event” value [8]?
Answer: 0.79

Question: What about the “Adjusted HR, primary composite endpoint, first event” value [8] of the same compound?
Answer: 0.75

Question: And the “Adjusted HR, primary composite endpoint, second event” value [8]?
Answer: 0.68

Question: And the “Adjusted HR, primary composite endpoint, third event” value [8]?
Answer: 0.69

Question: And the “Unadjusted HR, key secondary composite endpoint, first event” value [8]?
Answer: 0.74

Question: What about the “Unadjusted HR, key secondary composite endpoint, second event” value [8] of the same compound?
Answer: 0.75

Question: What about the “Unadjusted HR, key secondary composite endpoint, third event” value [8] of the same compound?
Answer: 0.79

Question: And the “Unadjusted HR, primary composite endpoint, first event” value [8]?
Answer: 0.76

Question: And the “Unadjusted HR, primary composite endpoint, second event” value [8]?
Answer: 0.69

Question: And the “Unadjusted HR, primary composite endpoint, third event” value [8]?
Answer: 0.69

Question: And the “HR (95% CI), Key Secondary Composite Endpoint” value [9]?
Answer: 0.74

Question: And the “HR (95% CI), Primary Composite Endpoint” value [9]?
Answer: 0.75

Question: And the “HR (95% CI), Key Secondary Composite Endpoint” value [10]?
Answer: 0.74

Question: What about the “HR (95% CI), Primary Composite Endpoint” value [10] of the same compound?
Answer: 0.76

Question: And the “HR (95% CI), Key Secondary Composite Endpoint” value [11]?
Answer: 0.75

Question: What about the “HR (95% CI), Primary Composite Endpoint” value [11] of the same compound?
Answer: 0.68

Question: What about the “HR (95% CI), Key Secondary Composite Endpoint” value [12] of the same compound?
Answer: 0.75

Question: What about the “HR (95% CI), Primary Composite Endpoint” value [12] of the same compound?
Answer: 0.69

Question: And the “HR (95% CI), Key Secondary Composite Endpoint” value [13]?
Answer: 0.79

Question: And the “HR (95% CI), Primary Composite Endpoint” value [13]?
Answer: 0.70

Question: And the “HR (95% CI), Key Secondary Composite Endpoint” value [14]?
Answer: 0.79

Question: And the “HR (95% CI), Primary Composite Endpoint” value [14]?
Answer: 0.70

Question: And the “Key secondary endpoint: Total events before reduction, % of overall events” value (N = 4089)?
Answer: 42.0%

Question: And the “Primary endpoint: Total events before reduction, % of overall events” value (N = 4089)?
Answer: (40.7) %

Question: What about the “Key secondary endpoint: Fatal events, % of overall events” value (N = 4089, after reduction) of the same compound?
Answer: 45.0%

Question: What about the “Key secondary endpoint: Non-fatal events, % of overall events” value (N = 4089, after reduction) of the same compound?
Answer: 40.9%

Question: What about the “Primary endpoint: Fatal events, % of overall events” value (N = 4089, after reduction) of the same compound?
Answer: (45.0) %

Question: What about the “Primary endpoint: Non-fatal events, % of overall events” value (N = 4089, after reduction) of the same compound?
Answer: (40.4) %

Question: What about the “Key secondary endpoint: Total events after reduction, % of overall events” value [15] of the same compound?
Answer: 42.1%

Question: What about the “Primary endpoint: Total events after reduction, % of overall events” value [15] of the same compound?
Answer: (41.0) %

Question: What about the “RR (95% CI), Key Secondary Composite Endpoint, total events” value [16] of the same compound?
Answer: 0.71

Question: What about the “RR (95% CI), Primary Composite Endpoint, total events” value [16] of the same compound?
Answer: 0.69

Question: And the “Adjusted RR, key secondary composite endpoint, total events” value [17]?
Answer: 0.72

Question: And the “Adjusted RR, primary composite endpoint, total events” value [17]?
Answer: 0.70

Question: What about the “Unadjusted RR, key secondary composite endpoint, total events” value [17] of the same compound?
Answer: 0.71

Question: What about the “Unadjusted RR, primary composite endpoint, total events” value [17] of the same compound?
Answer: 0.68

Question: What about the “RR (95% CI), Key Secondary Composite Endpoint, total events” value [18] of the same compound?
Answer: 0.71

Question: And the “RR (95% CI), Primary Composite Endpoint, total events” value [18]?
Answer: 0.67

Question: What about the “first occurrence of primary composite endpoint, HR” value [19] of the same compound?
Answer: 0.75

Question: What about the “second occurrence of primary composite endpoint, HR” value [19] of the same compound?
Answer: 0.68

Question: What about the “total (first and subsequent) ischemic events for primary composite endpoint, relative risk reduction” value (in vivo) of the same compound?
Answer: 30%

Question: What about the cardiovascular deaths prevented [20] of the same compound?
Answer: 12

Question: What about the coronary revascularizations prevented [20] of the same compound?
Answer: 76

Question: What about the “episodes of hospitalization for unstable angina prevented” value [20] of the same compound?
Answer: 16

Question: And the myocardial infarctions prevented [20]?
Answer: 42

Question: What about the strokes prevented [20] of the same compound?
Answer: 14

Question: And the “total primary endpoint events prevented” value [20]?
Answer: approximately 159

Question: And the “total key secondary endpoint event rate” value (placebo 44)?
Answer: 32 per 1000 patient years

Question: What about the “total (first and subsequent) primary endpoint event rate” value (placebo 89) of the same compound?
Answer: 61 per 1000 patient years

Question: And the “total key secondary endpoint events, RR” value (vs placebo)?
Answer: 0.72

Question: What about the “total primary endpoint events, rate ratio (RR)” value (vs placebo) of the same compound?
Answer: 0.70
